According to PubChem BioAssay AID493182 (Sanford-Burnham Center for Chemical Genomics, 2011):

The compounds below were run against Ubiquitin-conjugating enzyme E2 N (Homo sapiens) (UniProt P61088) (assay: UBC13 polyubiquitination inhibitor potency, dose response, biochemical, TR-FRET, reconfirmation (AID 493182)).
Sequence of Ubiquitin-conjugating enzyme E2 N (Homo sapiens) (P61088 whole entry, looked up): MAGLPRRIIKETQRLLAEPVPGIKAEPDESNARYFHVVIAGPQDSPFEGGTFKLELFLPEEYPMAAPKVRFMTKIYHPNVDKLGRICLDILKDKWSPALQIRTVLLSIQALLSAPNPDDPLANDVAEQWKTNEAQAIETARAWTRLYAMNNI

Row | IC50 | SMILES
1 | 17.3 µM | O=C(CSc1nc2ccsc2c(=O)n1Cc1ccc(C(=O)O)cc1)NCC1CCCO1 (configuration not stated)
2 | 12.1 µM | Cc1ccc(N(C(=O)c2snc(C(N)=O)c2N)C(C(=O)NCC2CCCO2)c2c[nH]c3ccccc23)cc1 (configuration not stated)
3 | 4.73 µM | C#CCOCCOCCOCCNc1nc(N2CCN(C(=O)CCCCCCCCCCNC(=O)[C@H](CCCCN)n3cc(CCO)nn3)CC2)nc(N2CCN(C(=O)CCCCCCCCCCNC(=O)[C@H](CCCCN)n3cc(CCO)nn3)CC2)n1

The next lines start with the compound.

Row | SMILES | IC50
4 | N#Cc1ccc(OCC(=O)NNC(=S)NC(=O)C2CC2)cc1 | 6.43 µM
5 | CCCCCCCCCCC[N+](C)(C)CC/C=C1/c2ccccc2Sc2ccc(Cl)cc21 | 4.77 µM
6 | CCC[C@@H](CN1CCC[C@H]1CN1C(N)=NC[C@H]1CC(C)C)N1C[C@@H](Cc2ccccc2)N(CCc2ccc(Cl)c(Cl)c2)C1=N | 12.6 µM
7 | C#CCOCCOCCOCCNc1nc(N2CCN(C(=O)C([C@@H](C)O)n3cc([C@@H](N)CCCCN)nn3)CC2)nc(N2CCN(C(=O)[C@H](CCCCN)n3cc(CN)nn3)CC2)n1 (some centres not stated) | 3.71 µM
